Reference: patent US5278324A, “Water soluble derivatives of taxol” (Virginia Tech Intellectual Properties, Inc., priority 1991, dated 1994)
Structures can show the parent of a compound that is named as a salt.

Legend:
[1] = Deutsch et al. 1989; cited from earlier work
[2] = cited from earlier work
[3] = in vivo conditions; cited from earlier work
cell culture = conditions: Magri and Kingston 1988; cited from earlier work
[4] = Magri and Kingston 1988; cited from earlier work
[5] = Magri and Kingston; cited from earlier work
[6] = cited from earlier work; remark: listed apart in the source
[7] = Biological testing of 2'-[(3-sulfo-1-oxopropyl)oxy]taxol sodium salt
[8] = Water solubility by partition between 1-octanol and water, relative to taxol; conditions: for times more water soluble than taxol / solubilities greater than taxol: 1-octanol/water partition; for water solubility (in words): versus taxol or the other derivatives; for solubilities greater than taxol: Table 9 discussion
Description: Water solubilities for all compounds were determined by the partition coefficient between 1-octanol and water. Octanol saturated with distilled water and distilled water saturated with octanol were used for the solubility determinations.
Taxol's water solubility was determined by dissolving 1.6 mg of taxol in 10 ml of distilled water saturated with 1-octanol in a 60 ml separatory funnel, and 10 ml of 1-octanol saturated with distilled water was then added. The funnel was shaken, and allowed to stand for about 30 minutes until the organic and aqueous phases separated. UV absorption measurements at 228 nm were made of the aqueous layer and/or octanol layer, with the octanol layer being diluted 5 times before measurement.

P-388 = conditions: compared with taxol; cited from earlier work
[9] = Aqueous solubility (statements in words); type: physicochemical; conditions: versus the neutral form
[10] = Stability of 2'-γ-aminobutyryltaxol formate (proton NMR and TLC); type: physicochemical; conditions: after a few hours
Description: 2'-γ-aminobutyryltaxol formate was synthesized by coupling taxol with N-carbobenzyloxy (CBZ) -γ-aminobutyric acid followed by deprotection of the amine. Taxol was reacted with N-CBZ-γ- aminobutyric acid using dicyclohexyl-carbodiimide (DCC) as the coupling agent. The resulting 2'-NCBZ-γ-aminobutyryl taxol was produced in 75% yield after purification via preparative TLC with silica gel and 3/2 hexane/ethyl acetate. […] Deprotection of the 2'-N-CBZ-γ-aminobutyryltaxol was effected using 5% Pd/C as a catalyst and formic acid as a hydrogen source. […] NMR confirmed the synthesis of the 2'-γ-aminobutyryl taxol formate. […] This instability precluded further consideration of 2'-γ-amino-butyryltaxol formate as a prodrug form of taxol.

[11] = cited from earlier work; remark: listed apart in the source
tubulin = conditions: cited from earlier work
[12] = system: drug-refractory ovarian cancer; conditions: McGuire et al. 1989; cited from earlier work
several tumor systems = conditions: background statement; cited from earlier work
[13] = system: acute leukemia and melanoma; conditions: preliminary studies; cited from earlier work

For `CC(=O)O[C@H]1C(=O)[C@@]2(C)[C@H]([C@H](OC(=O)c3ccccc3)[C@]3(O)C[C@H](OC(=O)[C@H](OC(=O)CCCC(=O)NCCCN(C)C)[C@@H](NC(=O)c4ccccc4)c4ccccc4)C(C)=C1C3(C)C)[C@]1(OC(C)=O)CO[C@@H]1C[C@@H]2O`, the antitumor activity [1] is given as “good solubility and bioactivity” and the solubility ([2]; Deutsch et al. 1989) is given as “good solubility”.
For `CC(=O)O[C@H]1C(=O)[C@]2(C)[C@@H](OC(C)=O)C[C@H]3OC[C@@]3(OC(C)=O)[C@H]2[C@H](OC(=O)c2ccccc2)[C@]2(O)C[C@H](OC(=O)[C@H](OC(C)=O)[C@@H](NC(=O)c3ccccc3)c3ccccc3)C(C)=C1C2(C)C` [2',7-diacetyltaxol], the “hydrolysis of acyl substituents at the 2' position” value [3] is listed as “readily hydrolyzed under in vivo conditions” and the “activity in a cell culture bioassay” value (cell culture) is listed as “both showed activity in a cell culture bioassay”.
In the case of `CC(=O)O[C@H]1C(=O)[C@@]2(C)[C@H]([C@H](OC(=O)c3ccccc3)[C@]3(O)C[C@H](OC(=O)[C@H](O[Si](C)(C)C(C)(C)C)[C@@H](NC(=O)c4ccccc4)c4ccccc4)C(C)=C1C3(C)C)[C@]1(OC(C)=O)CO[C@@H]1C[C@@H]2O` [2'-(t-butyldimethylsilyl) taxol], the biological activity [4] is given as “essentially inactive”.
In the case of `CC(=O)O[C@H]1C(=O)[C@@]2(C)[C@H]([C@H](OC(=O)c3ccccc3)[C@]3(O)C[C@H](OC(=O)[C@H](OC(=O)CCN)[C@@H](NC(=O)c4ccccc4)c4ccccc4)C(C)=C1C3(C)C)[C@]1(OC(C)=O)CO[C@@H]1C[C@@H]2O` [2'-(β-alanyl)taxol], the “activity in vivo and in vitro” value [5] is listed as “active in vivo and in vitro” and the stability ([6]; Magri and Kingston) is listed as “unstable”.
In the case of `CC(=O)O[C@H]1C(=O)[C@@]2(C)[C@H]([C@H](OC(=O)c3ccccc3)[C@]3(O)C[C@H](OC(=O)[C@H](OC(=O)CCS(=O)(=O)O)[C@@H](NC(=O)c4ccccc4)c4ccccc4)C(C)=C1C3(C)C)[C@]1(OC(C)=O)CO[C@@H]1C[C@@H]2O` [2'-[(3-sulfo-1-oxopropyl)oxy]taxol sodium salt], the bioactivity [7] was “bioactive”, the “times more water soluble than taxol” value [8] was 210 times and the “water solubility (in words)” value ([8]; listed as 2'-[(3-sulfo-l- oxopropyl)oxy]taxol sodium salt, sodium salt) was “improved water solubility”. For the same compound, the “water solubility (in words)” value ([8]; listed as 2'-acryloyltaxol derivative, sodium salt) was “highest water solubility”.
In the case of `CC(=O)O[C@H]1C(=O)[C@@]2(C)[C@H]([C@H](OC(=O)c3ccccc3)[C@]3(O)C[C@H](OC(=O)[C@H](OC(C)=O)[C@@H](NC(=O)c4ccccc4)c4ccccc4)C(C)=C1C3(C)C)[C@]1(OC(C)=O)CO[C@@H]1C[C@@H]2O` [2'-acetyltaxol], the “hydrolysis of acyl substituents at the 2' position” value [3] is given as “readily hydrolyzed under in vivo conditions” and the “activity in a cell culture bioassay” value (cell culture) is given as “both showed activity in a cell culture bioassay”.
In the case of `CC(=O)O[C@H]1C(=O)[C@@]2(C)[C@H]([C@H](OC(=O)c3ccccc3)[C@]3(O)C[C@H](OC(=O)[C@H](OC(=O)CCC(=O)O)[C@@H](NC(=O)c4ccccc4)c4ccccc4)C(C)=C1C3(C)C)[C@]1(OC(C)=O)CO[C@@H]1C[C@@H]2O` [2'-succinyltaxol], the “P-388 in vivo activity” value (P-388) is listed as “much diminished P-388 in vivo activity as compared with taxol”.
For `CC(=O)O[C@H]1C(=O)[C@@]2(C)[C@H]([C@H](OC(=O)c3ccccc3)[C@]3(O)C[C@H](OC(=O)[C@H](OC(=O)CCC(=O)NCCS(=O)(=O)O)[C@@H](NC(=O)c4ccccc4)c4ccccc4)C(C)=C1C3(C)C)[C@]1(OC(C)=O)CO[C@@H]1C[C@@H]2O` [2'-{[4-((2-sulfoethyl)amino)-1,4-dioxo-butyl]oxy}taxol sodium salt], the “times more water soluble than taxol” value [8] was 191 times, the “solubilities greater than taxol” value [8] was “more than 100 times” and the “water solubility (in words)” value [8] was “much greater water solubility than the 3-amino-1-sulfopropionic acid derivative of 2'-succinyltaxol”.
With `CC(=O)O[C@H]1C(=O)[C@@]2(C)[C@H]([C@H](OC(=O)c3ccccc3)[C@]3(O)C[C@H](OC(=O)[C@H](OC(=O)CCC(=O)NCCCS(=O)(=O)O)[C@@H](NC(=O)c4ccccc4)c4ccccc4)C(C)=C1C3(C)C)[C@]1(OC(C)=O)CO[C@@H]1C[C@@H]2O` [2'-{[4-((3-sulfopropyl)-amino)-1,4-dioxobutyl]oxy}taxol sodium salt] the “times more water soluble than taxol” value [8] was 118 times and the “solubilities greater than taxol” value [8] was “more than 100 times”.
With `CC(=O)O[C@H]1C(=O)[C@@]2(C)[C@H]([C@H](OC(=O)c3ccccc3)[C@]3(O)C[C@H](OC(=O)[C@H](OC(=O)CCCN)[C@@H](NC(=O)c4ccccc4)c4ccccc4)C(C)=C1C3(C)C)[C@]1(OC(C)=O)CO[C@@H]1C[C@@H]2O` [2'-γ-aminobutyryltaxol formate, 2'-γ-amino-butyryltaxol formate] the “water solubility of formate salt” value [9] was “more water soluble than the neutral form”, the “stability (proton NMR and TLC)” value [10] was “decomposed back to taxol” and the “stability in methanol solution” value ([10]; methanol solution) was “unstable in methanol solution and decomposed back to taxol after a few hours”.
For `CC(=O)O[C@H]1C(=O)[C@@]2(C)[C@H]([C@H](OC(=O)c3ccccc3)[C@]3(O)C[C@H](OC(=O)[C@H](O)[C@@H](NC(=O)c4ccccc4)c4ccccc4)C(C)=C1C3(C)C)[C@]1(OC(C)=O)CO[C@@H]1C[C@@H]2O` [Taxol, taxol], the “toxic effects in phase 1 clinical trials” value [11] is given as “did not show excessive toxic effects”, the “effect on microtubule formation” value (tubulin) is given as “promotes formation of the microtubules” and the “effect on depolymerization of tubulin” value (tubulin; mitotic spindle microtubules) is given as “prevents depolymerization of the tubulin”. The “Relative Solubility (water solubility relative to taxol)” value [8] was 1, the “activity against drug-refractory ovarian cancer” value [12] was “active agent against drug-refractory ovarian cancer” and the “water solubility of taxol” value ([2]; background statement) was “low water solubility”. The “activity in tumor systems” value (several tumor systems) was “has shown activity in several tumor systems”, the stability in base ([6]; base) was “readily hydrolyzed in base” and the “activity in acute leukemia and melanoma” value [13] was “marginal activity in acute leukemia and melanoma”.
In the case of `CC[C@]1(O)C[C@@H]2CN(CCc3c([nH]c4ccccc34)[C@@](C(=O)OC)(c3cc4c(cc3OC)N(C)[C@H]3[C@@](O)(C(=O)OC)[C@H](OC(C)=O)[C@]5(CC)C=CCN6CC[C@]43[C@@H]65)C2)C1` [vinblastine], the “effect on microtubule formation” value (tubulin) is listed as “prevent microtubule formation”.
